Assays:
[1] = cited from earlier work; for fraction of administered psilocybin dose excreted in urine: oral psilocybin, within 24 h (time not stated for 4-HIAA)
[2] = test system: norepinephrine transporters (NET); design: method as in Rickli et al., 2016; settings: ref Rickli et al., 2016; cited from earlier work
[3] = test system: serotonin transporter (SERT); design: method as in Rickli et al., 2016; settings: ref Rickli et al., 2016; cited from earlier work
recombinant CYP2E1 = biological target: T1, recombinant CYP2E1 (Homo sapiens, UniProt P05181); assay: Incubation with recombinant CYP2E1 enzymes; type: in vitro ADME; settings: 1,000 nM psilocin, rec. CYP2E1
T1 construct: purchased Corning Life Sciences B.V
Method: (§1) Corning UltraPool human liver microsomes (HLM) 150 (20 mg/mL), human intestinal microsomes (HIM) pool (10 mg/mL) as well as recombinant human CYP enzymes (with P450 oxidoreductase, OR) including CYP1A2+OR (0.5 nmol), CYP2B6+OR (0.5 nmol), CYP2C8+OR (1.0 nmol), CYP2C9*1+OR (1 nmol), CYP2C19+OR (0.5 nmol), CYP2D6*1+OR (0.5 nmol), CYP2E1+OR + cytochrome b5 (1 nmol), CYP3A4+OR + cytochrome b5 (0.5 nmol), MAO-A (5 mg/mL), MAO-B (5 mg/mL), and UGT1A10 (5 mg/mL) were purchased from Corning Life Sciences B.V (Amsterdam, Netherlands). All microsomes and recombinant enzyme solutions were aliquoted and stored at −80 °C until further use.
(§2) The total volume of the reaction mixture was 500 μL. […] Samples were either directly analyzed by liquid chromatography tandem mass spectrometry (LC-MS/MS) or briefly stored at −20°C until analysis.

recombinant CYP2C9 = biological target: T2, recombinant CYP2C9 (Homo sapiens, UniProt P11712); assay: Incubation with recombinant CYP2C9 enzymes; type: in vitro ADME; settings: 1,000 nM psilocin, rec. CYP2C9
T2 construct: purchased Corning Life Sciences B.V
Method: as §1, §2

CYP2D6 = assay: Influence of CYP2D6 genotype on psilocin plasma exposure in humans; type: in vivo; settings: human, PM/IM/EM/UM genotypes, AUC z-scores
Method: Genomic DNA was extracted from whole blood using the QIAamp DNA Blood Mini Kit (Qiagen, Hombrechtikon, Switzerland) and an automated QIAcube system. SNP genotyping was performed using commercial TaqMan SNP genotyping assays (LuBio Science, Lucerne, Switzerland). We assayed the following SNPs and respective alleles: CYP2D6*3 (rs35742686, assay: C_32407232_50), CYP2D6*4 (rs3892097, assay: C_27102431_D0, and rs1065852, assay: C_11484460_40), CYP2D6*6 (rs5030655, assay: C_32407243_20), CYP2D6*9 (rs5030656, assay: C_32407229_60), CYP2D6*10 (rs1065852), CYP2D6*17 (rs28371706, assay: C_2222771_A0, and rs16947, assay: C_27102425_10), CYP2D6*29 (rs59421388, assay: C_3486113_20), and CYP2D6*41 (rs28371725, assay: C_34816116_20, and rs16947). CYP2D6 gene deletion (allele *5) and duplication/multiplication (allele *xN) were determined using a TaqMan Copy Number Assay (Hs04502391_cn). Activity scores for CYP2D6 were assigned according to established guidelines ([Gaedigk et al., 2008]; [Crews et al., 2012]; [Hicks et al., 2013]; [Hicks et al., 2015]; [Caudle et al., 2020]). The classification into different genotypes was as follows: poor metabolizer (PM, activity score = 0), intermediate metabolizer (IM, activity score = 0.5–1), extensive metabolizer (EM, activity score = 1.5–2), and ultra-rapid metabolizer (UM, activity score > 2).

recombinant CYP2C8 = biological target: T3, recombinant CYP2C8 (Homo sapiens, UniProt P10632); assay: Incubation with recombinant CYP2C8 enzymes; type: in vitro ADME; settings: 1,000 nM psilocin, rec. CYP2C8
T3 construct: purchased Corning Life Sciences B.V
Method: as §1, §2

[4] = test system: human intestinal microsomes (HIM); assay: Glucuronidation with human intestinal microsomes; type: in vitro ADME; settings: for psilocin concentration: absence of HIM
Method: as §1, with “use. Co-factors including NADPH regenerating system solution A (25 mM NADP+, 66 mM glucose-6-phosphate, and 66 mM MgCl2 in water), NADPH regenerating system solution B (40 U/mL glucose-6-phosphate dehydrogenase in 5 mM sodium citrate), UGT reaction mix solution A (25 mM uridine 5′-diphospho-glucuronic acid in water), and UGT reaction mix solution B (250 mM Tris-HCl, 40 mM MgCl2, and 0.125 mg/mL alamethicin in water) were also obtained from Corning Life Sciences B.V.” for “use.”
The assay described in section 2.5.1 was adjusted to suit the glucuronidation system. […] HLM were diluted as described in section 2.5.1, while HIM or UGT1A10 enzymes were diluted 1:40 (end concentration […] and 0.125 mg/mL, respectively) in the reaction mix. Sampling time points were adjusted to 0, 15, 30, 60, 90, 120, 180, and 240 min.

recombinant CYP2B6 = biological target: T4, recombinant CYP2B6 (Homo sapiens, UniProt P20813); assay: Incubation with recombinant CYP2B6 enzymes; type: in vitro ADME; settings: 1,000 nM psilocin, rec. CYP2B6
T4 construct: purchased Corning Life Sciences B.V
Method: as §1, §2

recombinant CYP1A2 = biological target: T5, recombinant CYP1A2 (Homo sapiens, UniProt P05177); assay: Incubation with recombinant CYP1A2 enzymes; type: in vitro ADME; settings: 1,000 nM psilocin, rec. CYP1A2
T5 construct: purchased Corning Life Sciences B.V
Method: as §1, §2

[5] = test system: human liver microsomes (HLM); assay: Glucuronidation with human liver microsomes; type: in vitro ADME; settings: 1,000 nM psilocin with HLM and UGT co-factors
Method: as §1, with “use. Co-factors including NADPH regenerating system solution A (25 mM NADP+, 66 mM glucose-6-phosphate, and 66 mM MgCl2 in water), NADPH regenerating system solution B (40 U/mL glucose-6-phosphate dehydrogenase in 5 mM sodium citrate), UGT reaction mix solution A (25 mM uridine 5′-diphospho-glucuronic acid in water), and UGT reaction mix solution B (250 mM Tris-HCl, 40 mM MgCl2, and 0.125 mg/mL alamethicin in water) were also obtained from Corning Life Sciences B.V.” for “use.”
The assay described in section 2.5.1 was adjusted to suit the glucuronidation system. […] HLM were diluted as described in section 2.5.1, while HIM or UGT1A10 enzymes were diluted 1:40 (end concentration […] and 0.125 mg/mL, respectively) in the reaction mix. […]

[6] = test system: dopamine (DAT) transporter; design: method as in Rickli et al., 2016; settings: ref Rickli et al., 2016; cited from earlier work
[7] = humans, ref Holze et al., 2022a
[8] = humans, single oral dose of 25 mg psilocybin, ref Kolaczynska et al., 2021, Holze et al., 2022a

T1 sequence (P05181 whole entry): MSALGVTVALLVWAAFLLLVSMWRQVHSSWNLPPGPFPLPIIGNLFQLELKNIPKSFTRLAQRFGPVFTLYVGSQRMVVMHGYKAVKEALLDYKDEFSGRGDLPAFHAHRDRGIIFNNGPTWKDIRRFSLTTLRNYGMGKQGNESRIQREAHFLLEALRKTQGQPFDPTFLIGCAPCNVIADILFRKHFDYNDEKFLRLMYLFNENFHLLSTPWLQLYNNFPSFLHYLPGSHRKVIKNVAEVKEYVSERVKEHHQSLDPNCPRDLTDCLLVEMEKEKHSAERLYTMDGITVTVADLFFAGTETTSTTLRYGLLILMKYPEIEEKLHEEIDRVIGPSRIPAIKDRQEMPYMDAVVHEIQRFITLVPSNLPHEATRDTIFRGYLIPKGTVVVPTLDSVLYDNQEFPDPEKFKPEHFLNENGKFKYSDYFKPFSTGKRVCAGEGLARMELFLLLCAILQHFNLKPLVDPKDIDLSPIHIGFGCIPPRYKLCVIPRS
T3 sequence (P10632 whole entry): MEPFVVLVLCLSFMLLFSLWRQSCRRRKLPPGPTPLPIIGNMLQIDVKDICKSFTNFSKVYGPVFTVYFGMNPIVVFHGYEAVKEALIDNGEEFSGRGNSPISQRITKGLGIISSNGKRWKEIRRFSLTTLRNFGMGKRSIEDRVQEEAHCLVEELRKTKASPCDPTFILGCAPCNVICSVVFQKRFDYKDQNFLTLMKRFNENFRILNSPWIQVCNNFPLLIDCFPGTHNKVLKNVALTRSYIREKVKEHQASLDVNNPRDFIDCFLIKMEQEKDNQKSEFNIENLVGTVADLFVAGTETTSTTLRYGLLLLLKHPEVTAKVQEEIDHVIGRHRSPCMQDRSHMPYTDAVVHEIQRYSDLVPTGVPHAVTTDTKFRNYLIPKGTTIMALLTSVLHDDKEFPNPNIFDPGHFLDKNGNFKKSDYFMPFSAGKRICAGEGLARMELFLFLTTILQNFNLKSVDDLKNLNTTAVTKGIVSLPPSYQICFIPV
T5 sequence (P05177 2-516 limits assumed): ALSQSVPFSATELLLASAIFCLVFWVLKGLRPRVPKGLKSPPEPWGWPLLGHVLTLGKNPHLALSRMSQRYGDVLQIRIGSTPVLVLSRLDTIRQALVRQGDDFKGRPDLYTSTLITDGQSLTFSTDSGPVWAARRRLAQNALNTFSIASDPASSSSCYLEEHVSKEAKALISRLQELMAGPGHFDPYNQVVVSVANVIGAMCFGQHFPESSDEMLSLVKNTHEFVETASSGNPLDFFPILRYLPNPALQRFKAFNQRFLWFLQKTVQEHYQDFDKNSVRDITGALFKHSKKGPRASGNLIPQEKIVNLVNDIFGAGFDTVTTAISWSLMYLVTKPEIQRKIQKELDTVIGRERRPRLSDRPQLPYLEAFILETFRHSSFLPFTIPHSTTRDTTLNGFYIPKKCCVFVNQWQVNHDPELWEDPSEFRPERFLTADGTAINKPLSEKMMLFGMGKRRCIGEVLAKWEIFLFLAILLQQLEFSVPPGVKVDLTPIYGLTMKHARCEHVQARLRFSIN
T4 sequence (P20813 whole entry): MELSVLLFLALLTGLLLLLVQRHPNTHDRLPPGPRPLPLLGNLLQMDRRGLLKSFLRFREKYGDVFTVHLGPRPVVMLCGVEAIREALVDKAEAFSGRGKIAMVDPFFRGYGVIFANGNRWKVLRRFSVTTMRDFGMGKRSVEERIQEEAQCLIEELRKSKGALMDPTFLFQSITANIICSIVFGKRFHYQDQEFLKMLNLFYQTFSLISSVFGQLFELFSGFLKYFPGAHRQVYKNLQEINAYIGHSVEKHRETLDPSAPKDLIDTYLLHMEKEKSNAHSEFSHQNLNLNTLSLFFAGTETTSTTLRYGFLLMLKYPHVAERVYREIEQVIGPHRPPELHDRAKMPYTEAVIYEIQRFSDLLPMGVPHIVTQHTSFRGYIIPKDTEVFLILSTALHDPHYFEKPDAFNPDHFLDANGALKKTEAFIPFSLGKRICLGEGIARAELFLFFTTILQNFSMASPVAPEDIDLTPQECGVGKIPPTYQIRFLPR
T2 sequence (P11712 whole entry): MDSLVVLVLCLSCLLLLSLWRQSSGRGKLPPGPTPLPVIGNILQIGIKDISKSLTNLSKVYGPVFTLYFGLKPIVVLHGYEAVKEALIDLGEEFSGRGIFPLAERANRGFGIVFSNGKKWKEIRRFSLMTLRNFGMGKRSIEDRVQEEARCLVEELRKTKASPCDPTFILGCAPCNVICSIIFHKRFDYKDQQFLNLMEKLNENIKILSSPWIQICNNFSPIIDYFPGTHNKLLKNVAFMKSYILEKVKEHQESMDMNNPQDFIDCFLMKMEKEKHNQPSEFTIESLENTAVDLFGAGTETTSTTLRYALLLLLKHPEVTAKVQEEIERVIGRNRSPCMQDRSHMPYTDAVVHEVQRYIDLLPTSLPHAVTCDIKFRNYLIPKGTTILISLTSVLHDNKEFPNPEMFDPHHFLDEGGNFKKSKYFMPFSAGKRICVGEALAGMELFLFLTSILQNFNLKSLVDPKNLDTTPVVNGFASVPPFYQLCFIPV

SMILES: O=C(O)Cc1c[nH]c2cccc(O)c12 [4-HIAA, 4-hydroxyindole-3-acetic acid]
- fraction of administered psilocybin dose excreted in urine [1, 7]: Around 33%
- maximal concentrations relative to psilocin (higher) ([1]; humans, ref Holze et al., 2022a, Becker et al., 2022): 4–5 fold

SMILES: CN(C)CCc1c[nH]c2cccc(O)c12 [psilocin, 4-hydroxy-N,N-dimethyltryptamine]
- inhibition of NET [2]: not
- inhibition of SERT [3]: moderately inhibits
- metabolism of psilocin (recombinant CYP2E1): did not metabolize
- metabolism of psilocin (recombinant CYP2C9): did not metabolize
- effect of CYP2D6 genotype on plasma concentration of free psilocin (CYP2D6): did not alter
- metabolism of psilocin (recombinant CYP2C8): did not metabolize
- decrease of psilocin concentration through glucuronidation ([4]; 1,000 nM psilocin, HIM, 240 min): 37%
- psilocin concentration (mean ± SD) ([4]; HIM, t = 0): 1,085 ± 157 nM
- psilocin concentration (mean ± SD) ([4]; HIM, t = 240): 684 ± 53 nM
- psilocin concentration ([4]; t = 0): 980 ± 77 nM
- psilocin concentration ([4]; t = 240): 893 ± 91 nM
- metabolism of psilocin (recombinant CYP2B6): did not metabolize
- time of peak plasma concentration ([1]; after oral administration, ref Griffiths et al., 2016, Johnson et al., 2017, Holze et al., 2022a): around 2 h
- plasma elimination half-life in humans ([1]; humans, no reference given): approximately 2 h
- fraction of administered psilocybin dose excreted in urine [1, 7]: 1.5%
- elimination half-life (t1/2) [1, 8]: 2 to 3 h
- psilocin plasma concentrations [1, 8]: 15 to 20 ng/mL
- metabolism of psilocin (recombinant CYP1A2): did not metabolize
- glucuronidation of psilocin [5]: No glucuronidation was observed
- inhibition of DAT [6]: not

From article PMC11089204 (Frontiers in Pharmacology, 2024)
